Patent publication US20090082455A1, “THERAPEUTIC AGENT FOR OPHTHALMIC DISEASE” (ONO PHARMACEUTICAL CO. LTED, priority 2005, published 2009)
“Also recorded” adds a separate entry of the source. Structures can show the parent of a compound that is named as a salt. Where two headings read alike, the source gives them in different places.

Assays:
Type in all cases: in vivo
[1] = Single intravenous administration toxicity test in dogs; conditions: 100 mg/kg, single i.v.
Text: Since toxicity of (2R)-2-propyloctanoic acid, a salt thereof or prodrug thereof is low, it can be considered to be sufficiently safe for medicinal uses.

GFAP-positive cells = test: Rat retinal ischemia model: GFAP-positive cell number and area (GFAP staining); conditions: for Effect on changes in number of GFAP-positive cells / Effect on increases in GFAP positive areas: result in words; for inhibition at 10 mg/kg: Rattus norvegicus, iv; for Number of GFAP positive cells, A2 (mean): point A2 (optic nerve papilla); for Area of GFAP positive cells, A2 (mean): point A2; for Area of GFAP positive cells, A3 (mean) / Number of GFAP positive cells, A3 (mean): point A3; for Area of GFAP positive cells, A4 (mean): point A4 (optic nerve)
Method: (§1) A 27 G injection needle (4) was attached to an end of the tube. A part about 20 cm below the bottom end of the perfusion line was attached to a supporting bar and the part was lightly fixed by a stand.
(§2) A rat (Crj:CD(SD) IGS, from CHARLES RIVER LABORATORIES JAPAN, Inc.) was anesthetized with pentobarbital sodium (40 mg/kg, i.p.) and the pupil of the eye to be operated were preliminarily dilated by using a mydriasis agent (MYDRIN P; manufactured by SANTEN PHARMACEUTICAL Co., Ltd.).
(§3) Before the surgical operation, the bottle (1) was held up so that the water surface in the perfusion bottle was located on 163.5 cm above the rat eyes in the state of closing the perfusion line (loading an intraocular pressure of […]). After opening the top end, the perfusion line was connected to a differential pressure transducer and the height was adjusted to give a predetermined pressure, followed by closing the line. With confirming the mydriasis under a stereoscopic microscope, the stopper of the perfusion line was loosened and the solution was dropped little by little from the needle point. As the cornea was tightly sandwiched between tweezers and an injection needle (4), the injection needle (4) was punctured into the anterior chamber (5) from the nasal side. Next, the perfusion line was opened to load pressure in the anterior chamber (5). After loading the ischemia for 60 minutes, the injection needle (4) was taken off and the animals were awaken out of the anesthesia with keeping the body temperature at 37° C. In the sham-ischemia group, an injection needle was punctured into the anterior chamber from the nasal side in the state of closing the perfusion line, followed by taking off after 60 minutes.
(§4) (2R)-2-propyloctanoic acid was intravenously administered via the tail vein in a dose of 10 mg/mL/kg once a day for 7 days from the day of the ischemic operation. Dizocilpine maleate ((+)-MK-801 maleate, hereinafter referred to simply as “MK-801”) which is a positive control compound was intravenously administered via the tail vein in a dose of 10 mg/mL/kg once alone 30 minutes before the ischemic operation.
(§5) A rat was anesthetized with pentobarbital sodium (40 mg/kg, i.p.) and fixed at the dorsal position. After incising the subcostal skin, with grasping the xiphoid process with tweezers or a kocher, the upper end of the anterior abdominal muscle was horizontally incised with scissors. Next, after reversing the chest wall, the xiphoid process was grasped with a kocher or the chest wall was grasped with a kocher to expose the heart. The heart was grasped with tweezers and the left ventricular was incised with scissors. Then, the front end of a disposable oral probe for mouse connected to a blood transfusion tube was introduced from the left ventricular to the aorta and the end of the oral probe was grasped with a clamp. The atrial auricula was incised and perfused with physiological saline containing heparin (10 U/mL). The blood transfusion tube and the disposable oral probe for mouse were replaced with fresh ones and perfusion with a 10% neutral formalin buffer was conducted in the same manner as described above for fixation. After fixing, both eyes were taken out, stored in a sample bottle filled with the 10% neutral formalin buffer and subjected to the following evaluation.
(§6) An ischemic eye was excised, embedded and sliced. Next, hematoxylin-eosin staining, GFAP (glial fibrillary acidic protein) staining and S100 staining by the methods as shown in the following (5-2) to (5-4) were carried out.
An anti-GFAP rabbit antibody (cat No. Z0334, DAKO) was used. […]

S100-positive cells = test: Rat retinal ischemia model: S100-positive cell number and area (S100 staining); conditions: for Effect on increases in S100 positive areas / Effect on changes in number of S100-positive cells: result in words; for Effect on changes in number of S100-positive cells: A2 and A4 points; for inhibition at 10 mg/kg: Rattus norvegicus, S100, iv; for Area of S100 positive cells, A1 (mean): point A1; for Area of S100 positive cells, A2 (mean) / Number of S100 positive cells, A2 (mean): point A2; for Area of S100 positive cells, A3 (mean): point A3; for Area of S100 positive cells, A4 (mean) / Number of S100 positive cells, A4 (mean): point A4 (optic nerve)
Method: as §1, §2, §3, §4, §5, §6
An anti-S 100 rabbit antibody (cat No. Z0311, DAKO) was used. […]

GCL cells = test: Rat retinal ischemia model: number of GCL cells (HE staining); conditions: 10 mg/kg i.v.; for Effect on decrease in number of optic nerve cells / optic nerve cell death caused by ischemia: result in words; for Number of GCL cells, A1 (mean): retina point A1, 2 mm from optic nerve papilla; for Number of GCL cells, A1 (mean) / Number of GCL cells, A3 (mean) / Number of GCL cells, A1 + A3 (mean): 60 min ischemia; for Number of GCL cells, A3 (mean): retina point A3, 2 mm from optic nerve papilla; for Number of GCL cells, A1 + A3 (mean): sum of A1 and A3; for Inhibitory rate of decrease in number of optic nerve cells, A1+A3: sum of A1 and A3 data
Method: as §1, §2, §3, §4, §5, §6
(1) deparaffinization; (2) water washing; (3) nuclear staining with hematoxylin for 20 minutes; (4) water washing and color development for 10 minutes; (5) eosin for 3 minutes; and (6) dehydration→penetration→enclosure.
Using HE-stained samples thus obtained, GCL cells at two points (A1, A3; refer to FIG. 2) on the retina which are 2 mm apart from the optic nerve papilla (A2) were counted (cells/mm^2).

Compound | Effect on changes in number of GFAP-positive cells (GFAP-positive cells; 10 mg/kg i.v.) | Effect on increases in GFAP positive areas (GFAP-positive cells; 10 mg/kg i.v.) | Area of GFAP positive cells, A1 (mean) (GFAP-positive cells; point A1, 10 mg/kg i.v.) [% AREA] | Number of GFAP positive cells, A1 (mean) (GFAP-positive cells; point A1, 10 mg/kg i.v.) [cells/mm^2] | Number of GFAP positive cells, A2 (mean) (GFAP-positive cells; 10 mg/kg i.v.) [cells/mm^2] | Area of GFAP positive cells, A2 (mean) (GFAP-positive cells; 10 mg/kg i.v.) [% AREA] | Area of GFAP positive cells, A3 (mean) (GFAP-positive cells; 10 mg/kg i.v.) [% AREA] | Number of GFAP positive cells, A3 (mean) (GFAP-positive cells; 10 mg/kg i.v.) [cells/mm^2] | Area of GFAP positive cells, A4 (mean) (GFAP-positive cells; 10 mg/kg i.v.) [% AREA] | Effect on increases in S100 positive areas (S100-positive cells; 10 mg/kg i.v.) | Effect on changes in number of S100-positive cells (S100-positive cells; 10 mg/kg i.v.) | Area of S100 positive cells, A1 (mean) (S100-positive cells; 10 mg/kg i.v.) [% AREA] | Area of S100 positive cells, A2 (mean) (S100-positive cells; 10 mg/kg i.v.) [% AREA] | Number of S100 positive cells, A2 (mean) (S100-positive cells; 10 mg/kg i.v.) [cells/mm^2] | Area of S100 positive cells, A3 (mean) (S100-positive cells; 10 mg/kg i.v.) [% AREA] | Area of S100 positive cells, A4 (mean) (S100-positive cells; 10 mg/kg i.v.) [% AREA] | Number of S100 positive cells, A4 (mean) (S100-positive cells; 10 mg/kg i.v.) [cells/mm^2] | Effect on decrease in number of optic nerve cells / optic nerve cell death caused by ischemia (GCL cells) | Number of GCL cells, A1 (mean) (GCL cells) [cells/mm^2] | Number of GCL cells, A3 (mean) (GCL cells) [cells/mm^2] | other results
CCCCCC[C@@H](CCC)C(=O)O [(2R)-2-propyloctanoic acid] | showed inhibitory effects | showed inhibitory effects | 4.2 | 52.6 | 317.9 | 10.1 | 4.2 | 52.9 | 16.8 | showed inhibitory effects | showed an inhibitory effect | 1.9 | 3.5 | 295.4 | 1.6 | 3.3 | 307.7 | showed inhibitory effects; also recorded: remarkable effect of inhibiting optic nerve cell death | 116.4 | 129.9 | Lethality after single intravenous administration [1]: no fatal case was observed; inhibition at 10 mg/kg (GFAP-positive cells; point A1, 10 mg/kg i.v., read-out: Inhibitory rate of change in number of GFAP-positive cells at point A1): 69%; inhibition at 10 mg/kg (GFAP-positive cells; point A1 as printed, 10 mg/kg i.v., read-out: Inhibitory rate of increase in GFAP positive area at the point A1): 87.8%; inhibition at 10 mg/kg (S100-positive cells; point A4, 10 mg/kg i.v., read-out: Inhibitory rate of increase in S100 positive area at point A4): 93.9%; inhibition at 10 mg/kg (S100-positive cells; point A4, 10 mg/kg i.v., read-out: Inhibitory rate of increase in number of S100-positive cells at point A4): 31.2%; Number of GCL cells, A1 + A3 (mean) (GCL cells): 246.3 cells/mm^2; Inhibitory rate of decrease in number of optic nerve cells, A1+A3 (GCL cells): 52.1%
C[C@]12N[C@H](Cc3ccccc31)c1ccccc12 [MK-801, Dizocilpine maleate, reference compound] | showed inhibitory effects | showed inhibitory effects | 3.4 | 47.8 | 275.3 | 11.0 | 3.6 | 56.8 | 17.9 | showed inhibitory effects | showed an inhibitory effect exclusively on the increase in the number of S100-positive cells at the A2 point | 1.9 | 3.8 | 212.9 | 2.1 | 6.8 | 600.2 | showed inhibitory effects | 125.1 | 134.9 | inhibition at 10 mg/kg (GFAP-positive cells; read-out: Inhibitory rate of change in number of GFAP-positive cells at point A1): 42.9%; inhibition at 10 mg/kg (GFAP-positive cells; read-out: Inhibitory rate of increase in GFAP positive area at the point A1): 78.3%; inhibition at 10 mg/kg (S100-positive cells; read-out: Inhibitory rate of increase in S100 positive area at point A4): 51.2%; Number of GCL cells, A1 + A3 (mean) (GCL cells): 260.0 cells/mm^2; Inhibitory rate of decrease in number of optic nerve cells, A1+A3 (GCL cells): 59.5%
